From PubChem BioAssay (NCI)
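Where inhibition never reached the appropriate level, the endpoint shown equals the highest concentration tested. Otherwise, values were interpolated linearly from a five-concentration, 48-hour dose response in 96-well plates. GI50 is the concentration that inhibits growth by half. TGI denotes the concentration required for complete inhibition of growth.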

How the values were obtained:
Test in all cases: inhibition of tumour cell growth, NCI panel, 48 h; in the data active = GI50 below about 0.43 µM; inactive = the rest
SK-MEL-28 melanoma = tested on: SK-MEL-28 melanoma
T-47D breast = tested on: T-47D breast
SF-295 CNS = tested on: SF-295 CNS
NCI-H522 lung = tested on: NCI-H522 lung
TK-10 renal = tested on: TK-10 renal
MDA-MB-231 breast = tested on: MDA-MB-231 breast
BT-549 breast = tested on: BT-549 breast
HT29 colon = tested on: HT29 colon
EKVX NSCLC = tested on: EKVX NSCLC
OVCAR-5 ovarian = tested on: OVCAR-5 ovarian
MDA-MB-435 = tested on: MDA-MB-435
HCC-2998 colon = tested on: HCC-2998 colon
CAKI-1 renal = tested on: CAKI-1 renal
ACHN renal = tested on: ACHN renal
HOP-62 NSCLC = tested on: HOP-62 NSCLC
UACC-62 melanoma = tested on: UACC-62 melanoma
SF-539 CNS = tested on: SF-539 CNS
MCF7 breast = tested on: MCF7 breast
OVCAR-4 ovarian = tested on: OVCAR-4 ovarian
OVCAR-3 ovarian = tested on: OVCAR-3 ovarian
M14 melanoma = tested on: M14 melanoma
SNB-19 CNS = tested on: SNB-19 CNS
IGROV1 ovarian = tested on: IGROV1 ovarian
A549 NSCLC = tested on: A549 NSCLC
LOX IMVI melanoma = tested on: LOX IMVI melanoma
NCI-H460 lung = tested on: NCI-H460 lung
SNB-75 CNS = tested on: SNB-75 CNS
UO-31 renal = tested on: UO-31 renal
U251 CNS = tested on: U251 CNS
SN12C renal = tested on: SN12C renal
786-0 renal = tested on: 786-0 renal
MALME-3M melanoma = tested on: MALME-3M melanoma
HOP-92 NSCLC = tested on: HOP-92 NSCLC
SK-MEL-2 melanoma = tested on: SK-MEL-2 melanoma
A498 renal = tested on: A498 renal
HCT-15 colon = tested on: HCT-15 colon
MOLT-4 leukemia = tested on: MOLT-4 leukemia
K-562 leukemia = tested on: K-562 leukemia
UACC-257 melanoma = tested on: UACC-257 melanoma
COLO 205 colon = tested on: COLO 205 colon
SR leukemia = tested on: SR leukemia
HS 578T breast = tested on: HS 578T breast
NCI-H226 lung = tested on: NCI-H226 lung
NCI/ADR-RES ovarian = tested on: NCI/ADR-RES ovarian
HCT-116 colon = tested on: HCT-116 colon
SK-OV-3 ovarian = tested on: SK-OV-3 ovarian
SK-MEL-5 melanoma = tested on: SK-MEL-5 melanoma
RXF 393 renal = tested on: RXF 393 renal
SW-620 colon = tested on: SW-620 colon
KM12 colon = tested on: KM12 colon
DU-145 prostate = tested on: DU-145 prostate
MDA-N = tested on: MDA-N
RPMI-8226 leukemia = tested on: RPMI-8226 leukemia
PC-3 prostate = tested on: PC-3 prostate
NCI-H23 lung = tested on: NCI-H23 lung
OVCAR-8 ovarian = tested on: OVCAR-8 ovarian
SF-268 CNS = tested on: SF-268 CNS
CCRF-CEM leukemia = tested on: CCRF-CEM leukemia
HL-60(TB) leukemia = tested on: HL-60(TB) leukemia

O=[N+]([O-])[O][Sn]([O][Sn]([O][N+](=O)[O-])([c]1ccccc1)[c]1ccccc1)([c]1ccccc1)[c]1ccccc1
inactive: GI50 (SK-MEL-28 melanoma) > 100 µM | GI50 (T-47D breast) > 100 µM | GI50 (SF-295 CNS) > 100 µM | GI50 (NCI-H522 lung) 23.1 µM | GI50 (TK-10 renal) > 100 µM | GI50 (MDA-MB-231 breast) > 100 µM | GI50 (BT-549 breast) > 100 µM | GI50 (HT29 colon) > 100 µM | GI50 (EKVX NSCLC) > 100 µM | GI50 (OVCAR-5 ovarian) > 100 µM | GI50 (MDA-MB-435) > 100 µM | GI50 (HCC-2998 colon) > 100 µM | GI50 (CAKI-1 renal) > 100 µM | GI50 (ACHN renal) > 100 µM | GI50 (HOP-62 NSCLC) > 100 µM | GI50 (UACC-62 melanoma) 53.6 µM | GI50 (SF-539 CNS) > 100 µM | GI50 (MCF7 breast) > 100 µM | GI50 (OVCAR-4 ovarian) > 100 µM | GI50 (OVCAR-3 ovarian) > 100 µM | GI50 (M14 melanoma) > 100 µM | GI50 (SNB-19 CNS) > 100 µM | GI50 (IGROV1 ovarian) 72.8 µM | GI50 (A549 NSCLC) > 100 µM | GI50 (LOX IMVI melanoma) 83.4 µM | GI50 (NCI-H460 lung) > 100 µM | GI50 (SNB-75 CNS) > 100 µM | GI50 (UO-31 renal) > 100 µM | GI50 (U251 CNS) > 100 µM | GI50 (SN12C renal) > 100 µM | GI50 (786-0 renal) > 100 µM | GI50 (MALME-3M melanoma) 79.3 µM | GI50 (HOP-92 NSCLC) 38.6 µM | GI50 (SK-MEL-2 melanoma) > 100 µM | GI50 (A498 renal) > 100 µM | GI50 (HCT-15 colon) > 100 µM | GI50 (MOLT-4 leukemia) > 100 µM | GI50 (K-562 leukemia) > 100 µM | GI50 (UACC-257 melanoma) > 100 µM | GI50 (COLO 205 colon) > 100 µM | GI50 (SR leukemia) > 100 µM | GI50 (HS 578T breast) 47.1 µM | GI50 (NCI-H226 lung) > 100 µM | GI50 (NCI/ADR-RES ovarian) > 100 µM | GI50 (HCT-116 colon) > 100 µM | GI50 (SK-OV-3 ovarian) > 100 µM | GI50 (SK-MEL-5 melanoma) > 100 µM | GI50 (RXF 393 renal) > 100 µM | GI50 (SW-620 colon) > 100 µM | GI50 (KM12 colon) > 100 µM | GI50 (DU-145 prostate) > 100 µM | GI50 (MDA-N) > 100 µM | GI50 (RPMI-8226 leukemia) > 100 µM | GI50 (PC-3 prostate) 63.2 µM | GI50 (NCI-H23 lung) > 100 µM | GI50 (OVCAR-8 ovarian) > 100 µM | GI50 (SF-268 CNS) > 100 µM
> 100 µM: TGI (SK-MEL-28 melanoma) | TGI (T-47D breast) | TGI (SF-295 CNS) | TGI (NCI-H522 lung) | TGI (TK-10 renal) | TGI (MDA-MB-231 breast) | TGI (BT-549 breast) | TGI (HT29 colon) | TGI (EKVX NSCLC) | TGI (OVCAR-5 ovarian) | TGI (MDA-MB-435) | TGI (HCC-2998 colon) | TGI (CAKI-1 renal) | TGI (ACHN renal) | TGI (HOP-62 NSCLC) | TGI (UACC-62 melanoma) | TGI (SF-539 CNS) | TGI (MCF7 breast) | TGI (OVCAR-4 ovarian) | TGI (OVCAR-3 ovarian) | TGI (M14 melanoma) | TGI (SNB-19 CNS) | TGI (IGROV1 ovarian) | TGI (A549 NSCLC) | TGI (LOX IMVI melanoma) | TGI (NCI-H460 lung) | TGI (SNB-75 CNS) | TGI (UO-31 renal) | TGI (U251 CNS) | TGI (SN12C renal) | TGI (786-0 renal) | TGI (MALME-3M melanoma) | TGI (HOP-92 NSCLC) | TGI (SK-MEL-2 melanoma) | TGI (A498 renal) | TGI (HCT-15 colon) | TGI (MOLT-4 leukemia) | TGI (K-562 leukemia) | TGI (UACC-257 melanoma) | TGI (COLO 205 colon) | TGI (SR leukemia) | TGI (HS 578T breast) | TGI (NCI-H226 lung) | TGI (NCI/ADR-RES ovarian) | TGI (HCT-116 colon) | TGI (SK-OV-3 ovarian) | TGI (SK-MEL-5 melanoma) | TGI (RXF 393 renal) | TGI (SW-620 colon) | TGI (KM12 colon) | TGI (DU-145 prostate) | TGI (MDA-N) | TGI (RPMI-8226 leukemia) | TGI (PC-3 prostate) | TGI (NCI-H23 lung) | TGI (OVCAR-8 ovarian) | TGI (SF-268 CNS)

N#C/C(=C\c1ccc(Cl)cc1)c1nc(-c2cc3ccccc3oc2=O)cs1
37.7 µM: TGI (HS 578T breast)
47.8 µM: TGI (MDA-MB-231 breast)
51.3 µM: TGI (HOP-92 NSCLC)
85.3 µM: TGI (UACC-62 melanoma)
50.1 µM: TGI (NCI-H522 lung)
93.3 µM: TGI (U251 CNS)
> 100 µM: TGI (SK-MEL-28 melanoma) | TGI (T-47D breast) | TGI (SF-295 CNS) | TGI (HT29 colon) | TGI (EKVX NSCLC) | TGI (OVCAR-5 ovarian) | TGI (MDA-MB-435) | TGI (CCRF-CEM leukemia) | TGI (HCC-2998 colon) | TGI (CAKI-1 renal) | TGI (ACHN renal) | TGI (SF-539 CNS) | TGI (MCF7 breast) | TGI (OVCAR-4 ovarian) | TGI (M14 melanoma) | TGI (SNB-19 CNS) | TGI (IGROV1 ovarian) | TGI (A549 NSCLC) | TGI (LOX IMVI melanoma) | TGI (HL-60(TB) leukemia) | TGI (NCI-H460 lung) | TGI (SNB-75 CNS) | TGI (UO-31 renal) | TGI (SN12C renal) | TGI (786-0 renal) | TGI (MALME-3M melanoma) | TGI (SK-MEL-2 melanoma) | TGI (HCT-15 colon) | TGI (MOLT-4 leukemia) | TGI (K-562 leukemia) | TGI (UACC-257 melanoma) | TGI (COLO 205 colon) | TGI (SR leukemia) | TGI (NCI-H226 lung) | TGI (NCI/ADR-RES ovarian) | TGI (HCT-116 colon) | TGI (SK-OV-3 ovarian) | TGI (SK-MEL-5 melanoma) | TGI (RXF 393 renal) | TGI (SW-620 colon) | TGI (KM12 colon) | TGI (DU-145 prostate) | TGI (MDA-N) | TGI (RPMI-8226 leukemia) | TGI (PC-3 prostate) | TGI (OVCAR-8 ovarian) | TGI (SF-268 CNS)
94.6 µM: TGI (TK-10 renal)
31.8 µM: TGI (BT-549 breast)
58.2 µM: TGI (HOP-62 NSCLC)
